Activity calls are given as the source filed them. The rule behind the calls is not given here.
What was measured:
[1] = target: T1, Class 1 histone deacetylase (Homo sapiens, UniProt Q13547+O15379+Q92769+Q9BY41)
Description: Inhibition of class 1 HDAC in human Cal27CisR cells assessed as potentiation of cisplatin-induced cytotoxicity by measuring combination index at 0.10 uM in presence of 1 uM cisplatin by MTT assay based Chou-Talalay analysis

[2] = target: T1, Class 1 histone deacetylase; conditions: CAL-27
Description: Inhibition of class 1 HDAC in human CAL27 cells assessed as potentiation of cisplatin-induced cytotoxicity by measuring combination index at 0.1 uM in presence of 0.32 uM cisplatin by MTT assay based Chou-Talalay analysis

[3] = target: T1, Class 1 histone deacetylase; remark: listed apart in the source
Description: Inhibition of class 1 HDAC in human Cal27CisR cells assessed as potentiation of cisplatin-induced cytotoxicity by measuring combination index at 0.10 uM in presence of 10 uM cisplatin by MTT assay based Chou-Talalay analysis

[4] = target: T1, Class 1 histone deacetylase; remark: listed apart in the source
Description: Inhibition of class 1 HDAC in human Cal27CisR cells assessed as potentiation of cisplatin-induced cytotoxicity by measuring combination index at 0.25 uM in presence of 1 uM cisplatin by MTT assay based Chou-Talalay analysis

[5] = target: T1, Class 1 histone deacetylase; conditions: CAL-27; remark: listed apart in the source
Description: Inhibition of class 1 HDAC in human CAL27 cells assessed as potentiation of cisplatin-induced cytotoxicity by measuring combination index at 0.25 uM in presence of 0.32 uM cisplatin by MTT assay based Chou-Talalay analysis

[6] = target: T1, Class 1 histone deacetylase; remark: listed apart in the source
Description: Inhibition of class 1 HDAC in human Cal27CisR cells assessed as potentiation of cisplatin-induced cytotoxicity by measuring combination index at 0.25 uM in presence of 10 uM cisplatin by MTT assay based Chou-Talalay analysis

[7] = target: T1, Class 1 histone deacetylase; conditions: CAL-27; remark: listed apart in the source
Description: Inhibition of class 1 HDAC in human CAL27 cells assessed as potentiation of cisplatin-induced cytotoxicity by measuring combination index at 0.1 uM in presence of 3.2 uM cisplatin by MTT assay based Chou-Talalay analysis

[8] = test system: CAL-27; assay: Induction of apoptosis in human CAL27 cells assessed as caspase-3/7 activation at 0.5 uM measured after 48 hrs by CellEvent caspase 3/7 green detection reagent/Hoechst 33342 staining based imaging analysis relative to control; format: functional
[9] = target: T1, Class 1 histone deacetylase; conditions: CAL-27; remark: listed apart in the source
Description: Inhibition of class 1 HDAC in human CAL27 cells assessed as potentiation of cisplatin-induced cytotoxicity by measuring combination index at 0.25 uM in presence of 10 uM cisplatin by MTT assay based Chou-Talalay analysis

[10] = target: T1, Class 1 histone deacetylase; remark: listed apart in the source
[11] = target: T1, Class 1 histone deacetylase; assay: Inhibition of class 1 HDAC in human CAL27 cells assessed as increase in histone H3 acetylation at 5 uM measured after 24 hrs by immunoblot analysis; format: cell-based; conditions: CAL-27
[12] = target: T1, Class 1 histone deacetylase; assay: Inhibition of class 1 HDAC in human Cal27CisR cells assessed as potentiation of cisplatin-induced cytotoxicity by measuring combination index at 5 uM in presence of 100 uM cisplatin by MTT assay based Chou-Talalay analysis; format: cell-based
[13] = target: T1, Class 1 histone deacetylase; assay: Inhibition of class 1 HDAC in human Cal27CisR cells assessed as potentiation of cisplatin-induced cytotoxicity by measuring combination index at 5 uM in presence of 1 uM cisplatin by MTT assay based Chou-Talalay analysis; format: cell-based

T1 sequence (O15379 whole entry, looked up): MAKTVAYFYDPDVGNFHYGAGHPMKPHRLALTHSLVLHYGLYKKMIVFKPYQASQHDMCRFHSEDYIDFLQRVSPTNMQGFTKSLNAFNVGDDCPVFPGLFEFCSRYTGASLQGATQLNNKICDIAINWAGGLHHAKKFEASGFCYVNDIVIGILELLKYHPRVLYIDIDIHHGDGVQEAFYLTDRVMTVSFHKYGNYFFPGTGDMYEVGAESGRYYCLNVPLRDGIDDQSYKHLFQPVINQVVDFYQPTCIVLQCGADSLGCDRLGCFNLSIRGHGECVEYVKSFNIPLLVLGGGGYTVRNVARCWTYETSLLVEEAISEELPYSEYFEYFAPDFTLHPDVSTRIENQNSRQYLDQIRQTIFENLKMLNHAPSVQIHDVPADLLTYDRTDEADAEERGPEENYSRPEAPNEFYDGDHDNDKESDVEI
T1 sequence (Q13547 whole entry, looked up): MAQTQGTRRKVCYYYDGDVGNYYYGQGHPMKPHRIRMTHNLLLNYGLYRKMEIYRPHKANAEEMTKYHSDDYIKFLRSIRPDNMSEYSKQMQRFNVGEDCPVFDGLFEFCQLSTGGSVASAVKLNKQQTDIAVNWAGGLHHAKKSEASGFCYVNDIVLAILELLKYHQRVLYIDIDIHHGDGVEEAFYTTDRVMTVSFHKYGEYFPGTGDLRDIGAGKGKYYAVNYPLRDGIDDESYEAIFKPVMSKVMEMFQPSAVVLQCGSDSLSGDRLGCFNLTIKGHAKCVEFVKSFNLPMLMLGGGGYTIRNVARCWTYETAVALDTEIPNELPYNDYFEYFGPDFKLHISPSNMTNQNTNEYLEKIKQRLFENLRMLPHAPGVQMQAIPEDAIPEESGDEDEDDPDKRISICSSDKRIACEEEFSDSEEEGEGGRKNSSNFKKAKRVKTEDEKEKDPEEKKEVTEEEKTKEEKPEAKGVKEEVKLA
T1 sequence (Q92769 whole entry, looked up): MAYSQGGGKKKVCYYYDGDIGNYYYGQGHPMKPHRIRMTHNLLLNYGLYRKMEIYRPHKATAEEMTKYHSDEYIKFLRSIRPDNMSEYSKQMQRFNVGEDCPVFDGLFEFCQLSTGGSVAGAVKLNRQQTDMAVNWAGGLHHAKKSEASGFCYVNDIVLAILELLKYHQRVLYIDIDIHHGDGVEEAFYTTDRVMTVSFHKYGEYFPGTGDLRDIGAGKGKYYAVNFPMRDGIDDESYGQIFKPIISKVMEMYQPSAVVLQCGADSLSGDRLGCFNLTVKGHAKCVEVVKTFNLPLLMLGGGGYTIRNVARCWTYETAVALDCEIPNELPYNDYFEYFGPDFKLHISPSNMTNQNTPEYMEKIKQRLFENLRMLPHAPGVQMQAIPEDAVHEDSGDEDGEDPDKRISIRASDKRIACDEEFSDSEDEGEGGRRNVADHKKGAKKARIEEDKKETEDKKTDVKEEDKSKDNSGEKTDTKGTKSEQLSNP
T1 sequence (Q9BY41 whole entry, looked up): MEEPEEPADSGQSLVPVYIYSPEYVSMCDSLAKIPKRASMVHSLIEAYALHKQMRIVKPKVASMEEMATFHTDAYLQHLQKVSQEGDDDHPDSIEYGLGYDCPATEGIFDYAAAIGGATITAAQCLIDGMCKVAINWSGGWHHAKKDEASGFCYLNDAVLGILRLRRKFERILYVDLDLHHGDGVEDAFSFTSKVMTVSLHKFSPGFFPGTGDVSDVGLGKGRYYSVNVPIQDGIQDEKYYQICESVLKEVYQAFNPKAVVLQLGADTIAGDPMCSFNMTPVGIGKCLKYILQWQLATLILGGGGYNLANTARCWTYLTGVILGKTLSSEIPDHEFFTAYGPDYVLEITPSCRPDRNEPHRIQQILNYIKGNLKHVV

In the case of `CN(C)c1ccc(C(=O)N(CC(=O)NCc2ccccc2)Cc2ccc(C(=O)Nc3ccccc3N)cc2)cc1`, the CI [1] was < 0.2, the CI [2] was < 0.2 and the CI [3] was < 0.2. For the same compound, the CI [4] was 0.76, the CI [5] was 0.39 and the CI [6] was 0.23. For the same compound, the CI [7] was 0.37, the Activity [8] was 12% and the CI [9] was 0.02. For the same compound, the CI [10] was 0.04.

`Cc1cc(C)cc(C(=O)N(CCCCCC(=O)Nc2cc(-c3ccccc3)ccc2N)CC(=O)NCc2ccccc2)c1` was tested, and the inhibition [11] was “Active”, the CI [12] was 0.05 and the CI [13] was < 0.2.
